We go through one molecule from patent publication US11649245B2, “Cyclopropylamine compound as LSD1 inhibitor and use thereof” (HELIOEAST PHARMACEUTICAL CO., LTD., priority 2018, dated 2023).

For the test, the system named is human small cell lung cancer NCI-H1417 xenograft tumor model. Kind of test: In vivo pharmacodynamic study on NCI-H1417 subcutaneous xenograft tumor in CB-17 SCID mice. Particulars: compound 6 hydrochloride 1.5 mg/kg oral once a day, cisplatin 1 mg/kg i.p. twice a week. Here is the method: The purpose of the experiment was to evaluate the in vivo efficacy of the compounds of the present disclosure on subcutaneous xenograft tumor of human small cell lung cancer NCI-H1417 cells in a CB-17 SCID mouse model.
Human small cell lung cancer NCI-H1417 cells (ATCC) were cultured in vitro in a single layer, the culture conditions were RPMI-1640 culture medium supplemented with 10% fetal bovine serum, 37° C. 5% CO2. When the cell saturation reached 80%-90%, the cells were collected, counted, and inoculated.
0.2 mL of 10×10^6 NCI-H1417 cells were subcutaneously inoculated into the right back of each mouse (PBS: Matrigel=1:1). Group administration was started when the average volume reached 100-150 mm^3.
The vehicle used in the experiment was 0.5% methylcellulose solution, the preparation method was: 5 g of methylcellulose was weighed and dissolved in 800 mL ultrapure water, stirred evenly and made up to 1000 mL with ultrapure water. The test substance was dissolved in a solvent and prepared into a uniform solution of a certain concentration, and stored at 4° C.
Cisplatin (Cisplatin, manufacturer Qilu Pharmaceutical Co., Ltd., 10 mg/bottle freeze-dried powder for injection, lot number 7D011A8) was added to 10 mL 0.9% NaCl to make a 1 mg/mL mother liquor, and stored at room temperature and protected from light. The mother liquor was aliquoted into 0.63 mL and stored at room temperature. 5.67 mL 0.9% NaCl was added to one of the 0.63 mL mother liquor to make a 0.1 mg/mL solution.
The experimental indicator is to investigate whether tumor growth was inhibited, delayed, or cured. Tumor diameters were measured with a vernier caliper twice a week. The tumor volume was calculated by the calculation formula: V=0.5a×b^2, a and b respectively represent the long and short diameters of the tumor.
The anti-tumor effect of the compounds was evaluated by TGI (%). TGI (%) can reflect the tumor growth inhibition rate. TGI (%) calculation: TGI (%)=[1-(the average tumor volume at the end of the administration in a treatment group—the average tumor volume at the beginning of the administration in the treatment group)/(the average tumor volume at the end of the treatment of the solvent control group—the average tumor volume at the beginning of the treatment of the solvent control group)]×100%.

As usually defined, the TGI is the reduction of tumour growth relative to the control group. Low values mean a weaker effect on the tumour, high ones a stronger effect on the tumour. With `N.N.[Cl][Pt][Cl]` [Cisplatin, reference compound], the “Tumor volume mean ± SEM (28th day)” value (CB-17 SCID mice) came out at 165 ± 22 mm^3. For the setting “tumor growth inhibition rate, 28th day”, the TGI is 85.9%.
